Experimental data taken from patent publication US10870638B2, “Pyridazinone compound or its salt, and herbicide containing it” (ISHIHARA SANGYO KAISHA, LTD., priority 2016, dated 2020).

Tests used:
Type in all cases: in vivo
Conditions in all cases: active ingredient amount 31 g/ha, 14th day after application
[1] = tested on: prickly sida (Sida spinosa L.); test: Test Example 2: soil application on the day after sowing, growth inhibition rate on 14th day
Method in brief: (§1)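 Field soil in 1/300,000 ha pots was sown, and the next day compounds formulated as wettable powders or emulsifiable concentrates were diluted in water (1,000 L/ha) and soil-sprayed at the prescribed active ingredient rates. Growth inhibition was scored visually 14 days later, 0 (untreated) to 100 (complete kill).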

[2] = tested on: crabgrass (Digitaris sanquinalis L.); test: as above
Method in brief: as §1

[3] = tested on: soybean (Glycine max Merr.); test: as above
Method in brief: as §1

[4] = tested on: green foxtail (Setaria viridis L.); test: as above
Method in brief: as §1

[5] = tested on: velvetleaf (Abutilon theophrasti MEDIC.); test: as above
Method in brief: as §1

[6] = tested on: rice (Oryza sativa L.); test: as above
Method in brief: as §1

[7] = tested on: wheat (Triticum aestivum L.); test: as above
Method in brief: as §1

[8] = tested on: corn (Zea mays L.); test: as above
Method in brief: as §1

[9] = tested on: barnyardgrass (Echinochloa crus-qalli L.); test: as above
Method in brief: as §1

[10] = tested on: redroot pigweed (Amaranthus retroflexus L.); test: as above
Method in brief: as §1

[11] = tested on: soybean (Glycine max Merr.); test: Test Example 1: foliar treatment, growth inhibition rate on 14th day
Method in brief: (§2)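 Sow seeds in upland soil pots; at target leaf stage (wild oat 0.4–1.2, rice 0.2–2.7, foxtail 0.5–3.2, soybean primary leaf) spray formulated compound in water, 1,000 L/ha, 0.1 vol % surfactant. Score inhibition visually at day 14, 0–100%.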

[12] = tested on: green foxtail (Setaria viridis L.); test: as above
Method in brief: as §2

[13] = tested on: rice (Oryza sativa L.); test: as above
Method in brief: as §2

[14] = tested on: crabgrass (Digitaria sanquinalis L.); test: as above
Method in brief: (§3)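 Using a small sprayer, formulated compound in water (0.1 vol % surfactant, 1,000 L/ha) was applied to seedlings grown from seed in upland soil. Fourteen days on, growth state was observed and expressed as percent inhibition from 0 to 100.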

[15] = tested on: wheat (Triticum aestivum L.); test: as above
Method in brief: as §3

[16] = tested on: corn (Zea mays L.); test: as above
Method in brief: as §3

[17] = tested on: barnyardgrass (Echinochloa crus-qalli L.); test: as above
Method in brief: as §3

[18] = tested on: wild oat (Avena fatua L.); test: as above
Method in brief: as §2

[19] = tested on: redroot pigweed (Amaranthus retroflexus L.); test: as above
Method in brief: as §3

[20] = tested on: italian ryegrass (Lolium multiflorum Lam.); test: as above
Method in brief: as §3

[21] = visual, 0 = non-treated, 100 = complete kill

| Structure (SMILES) | Growth inhibition rate (%) Prickly sida [1] | Growth inhibition rate (%) Crabgrass [2] | Growth inhibition rate (%) Soybean [3] | Growth inhibition rate (%) Green foxtail [4] | Growth inhibition rate (%) Velvetleaf [5] | Growth inhibition rate (%) Rice [6] | Growth inhibition rate (%) Wheat [7] | Growth inhibition rate (%) Corn [8] | Growth inhibition rate (%) Barnyardgrass [9] | Growth inhibition rate (%) Redroot pigweed [10] | Growth inhibition rate (%) Soybean [11] | Growth inhibition rate (%) Green foxtail [12] | Growth inhibition rate (%) Rice [13] | Growth inhibition rate (%) Crabgrass [14] | Growth inhibition rate (%) Wheat [15] | Growth inhibition rate (%) Corn [16] | Growth inhibition rate (%) Barnyardgrass [17] | Growth inhibition rate (%) Wild oat [18] | Growth inhibition rate (%) Redroot pigweed [19] | Growth inhibition rate (%) Italian ryegrass [20] | also measured |
| --- | --- | --- | --- | --- | --- | --- | --- | --- | --- | --- | --- | --- | --- | --- | --- | --- | --- | --- | --- | --- | --- |
| CCc1ccc(Oc2ncc(C(F)(F)F)cc2Cl)cc1-c1c(OC(C)=O)c(C)nn(C)c1=O [1-45] | 0% | 100% | 0% | 100% | 0% | 30% | 20% | 88% | 100% | 0% | 10% | 100% | 99% | 100% | 99% | 100% | 100% | 100% | 10% | 100% | – |
| Cc1ccc(Oc2nc3ccc(Cl)cc3s2)cc1-c1c(O)c(C)nn(C)c1=O [Compound 2-10] | 0% | 50% | 0% | 85% | 0% | 40% | 0% | 30% | 95% | 0% | 30% | 99% | 0% | 40% | 10% | 0% | 99% | 10% | 0% | 10% | – |
| Cc1ccc(Oc2cnc3cc(Cl)ccc3n2)cc1-c1c(OS(=O)(=O)C(F)(F)F)c(C)nn(C)c1=O [Compound 3-69] | 0% | 30% | 0% | 95% | 0% | 0% | 0% | 0% | 93% | 0% | – | – | – | – | – | – | – | – | – | – | Growth inhibition rate (%) Soybean [11, 21]: 0%; Growth inhibition rate (%) Green foxtail [12, 21]: 100%; Growth inhibition rate (%) Rice [13, 21]: 30%; Growth inhibition rate (%) Crabgrass [14, 21]: 95%; Growth inhibition rate (%) Wheat [15, 21]: 98%; Growth inhibition rate (%) Corn [16, 21]: 20%; Growth inhibition rate (%) Barnyardgrass [17, 21]: 100%; Growth inhibition rate (%) Wild oat [18, 21]: 99%; Growth inhibition rate (%) Redroot pigweed [19, 21]: 0%; Growth inhibition rate (%) Italian ryegrass [20, 21]: 99% |
| C=CCOC(=O)Oc1c(C)nn(C)c(=O)c1-c1cc(Oc2cnc3cc(Cl)ccc3n2)ccc1C [Compound 3-58] | 0% | 10% | 0% | 75% | 0% | 0% | 0% | 0% | 85% | 0% | – | – | – | – | – | – | – | – | – | – | Growth inhibition rate (%) Soybean [11, 21]: 25%; Growth inhibition rate (%) Green foxtail [12, 21]: 100%; Growth inhibition rate (%) Rice [13, 21]: 50%; Growth inhibition rate (%) Crabgrass [14, 21]: 99%; Growth inhibition rate (%) Wheat [15, 21]: 98%; Growth inhibition rate (%) Corn [16, 21]: 55%; Growth inhibition rate (%) Barnyardgrass [17, 21]: 100%; Growth inhibition rate (%) Wild oat [18, 21]: 95%; Growth inhibition rate (%) Redroot pigweed [19, 21]: 0%; Growth inhibition rate (%) Italian ryegrass [20, 21]: 99% |
| Cc1ccc(Oc2ncc(C(F)(F)F)cc2Br)cc1-c1c(O)c(C)nn(C)c1=O [Compound 2-83] | 75% | 100% | 0% | 100% | 0% | 30% | 0% | 0% | 99% | 100% | 0% | 99% | 0% | 98% | 10% | 60% | 99% | 88% | 0% | 80% | – |
